Assay [1] relates to OVCAR3 cells. The assay can be described thus: Cell Proliferation Activity Test (CyQUANT Direct), OVCAR3. The class given is cell-based. As to conditions: compound 0-10 µM, 3 days, 0.2% DMSO, CyQUANT fluorescence, read-out: OVCAR-3 _IC50_nM. How it is done:
Assay 2: Cell Proliferation Activity Test
Materials and Cells: OVCAR3 cells were purchased from Nanjing Cobioer Biosciences Co., Ltd. RPMI-1640 medium, fetal bovine serum, and the CyQUANT Direct Cell Proliferation Assay kit were purchased from Thermo Fisher Scientific, USA; 96-well cell culture plates were sourced from Coming, USA.
Cell Culture: OVCAR3 cells were cultured with RPMI-1640 medium containing 10% fetal bovine serum and incubated in a 5% CO2 incubator at 37°C. Only cells in the logarithmic growth phase could be used for the test.
Cell Proliferation Activity Test:
OVCAR3 cells were inoculated into a 96-well cell culture plate at 90 µL per well and incubated overnight in a 5% CO2 incubator at 37°C. The compound powder was dissolved in DMSO to prepare a stock solution of 10 mM. Then gradient dilution was performed for the compounds in the microplate to achieve a final concentration of 0-10 µM. 10 µL of cell culture medium containing compounds was added to each well to make the final DMSO content 0.2%. The cell plates were incubated in a 5% CO2 incubator at 37°C for 3 days. 100 µL of CyQUANT detection reagent was added to each well, reacted at 37°C for 60 min, and fluorescence detection was performed using the PerkinElmer Envision.

Assay [2] deals with HT29 cells. The assay can be described thus: CyQuant Cell Proliferation Activity Test, HT29. The class given is cell-based. As to conditions: HT29 cells 2000 per well, initial concentration 3000 nM, 3-fold dilution, 3 days, 0.2% DMSO, read-out: HT29_IC50 _nM. On the procedure:
Assay 3: CyQuant Cell Proliferation Activity Test
Materials and Cells: HT29 cells were purchased from Nanjing Cobioer Biosciences Co., Ltd.; RPMI-1640 medium, fetal bovine serum, Trypsin-EDTA (0.25%), 96-well plates, and CyQuant reagents were purchased from ThermoFisher (USA); DMSO was purchased from SIGMA (USA).
Cell Culture: HT29 cells were cultured with RPMI-1640 containing 10% fetal bovine serum under the condition of 37°C and 5% CO2. Only cells in the logarithmic growth phase could be used for the test.
Cell Proliferation Activity Test: CyQuant reagent was used to detect the proliferation inhibitory activity of compounds on HT29 cells. The cell density was adjusted, and 100 µL per well was inoculated into a 96-well plate (HT29 at 2000 cells per well), then incubated overnight at 37°C and 5% CO2. Add compounds of various target concentrations (initial concentration of 3000 nM, 3-fold dilution, 9 concentration gradients), and make the DMSO content 0.2%. The cell plate was incubated at 37°C in 5% CO2 for 3 days. CyQuant reagent was added and incubated for 1 h. The plates were read by Envision, and IC50 was calculated using XLFIT.

Assay [3] addresses T1, Human KIF18A (amino acid sequence 1-417) (Homo sapiens, UniProt Q8NI77).
T1 construct: purchased Viva Biotech (Shanghai) Ltd
T1 sequence (Q8NI77 1-417): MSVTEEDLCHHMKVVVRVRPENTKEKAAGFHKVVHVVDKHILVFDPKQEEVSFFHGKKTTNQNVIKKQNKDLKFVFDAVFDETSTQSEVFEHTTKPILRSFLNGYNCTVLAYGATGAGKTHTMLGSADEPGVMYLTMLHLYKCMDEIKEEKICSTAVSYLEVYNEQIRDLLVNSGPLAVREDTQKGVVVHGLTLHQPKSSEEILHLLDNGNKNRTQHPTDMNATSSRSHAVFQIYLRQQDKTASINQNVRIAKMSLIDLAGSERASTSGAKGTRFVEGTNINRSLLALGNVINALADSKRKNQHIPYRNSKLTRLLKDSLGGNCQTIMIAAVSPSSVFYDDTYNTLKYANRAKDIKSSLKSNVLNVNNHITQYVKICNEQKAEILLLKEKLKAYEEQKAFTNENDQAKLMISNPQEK
The assay can be described thus: Enzymatic Activity Test (ADP-Glo, microtubule-stimulated KIF18A ATPase). As to conditions: 60 µg/mL microtubules, 25 µM ATP, 2.5 nM KIF18A protein, 120 min at ambient temperature, chemiluminescence; read-out: KIF 18A IC50. The class given is biochemical. How it is done:
Assay 1: Enzymatic Activity Test
Materials: Human KIF18A (amino acid sequence 1-417) was purchased from Viva Biotech (Shanghai) Ltd.; the ADP-Glo™ protein kinase kit was acquired from Promega, USA; tubulin was sourced from Cytoskeleton, USA; and the 384-well assay plate and Envision multifunctional microplate reader were obtained from PerkinElmer, USA.
Enzymatic Activity Test: The compound powder was dissolved in DMSO to prepare a stock solution of 10 mM. Then gradient dilution was performed for the compounds in the microplate to achieve a final concentration of 0-10 µM. Then, 2.5 µL each of tubulin, compound, ATP, and KIF18A protein were added to the microplate in sequence for reaction at ambient temperature for 120 min. The final concentrations in the enzyme reaction were 60 µg/mL for microtubules, 25 µM for ATP, and 2.5 nM for KIF18A protein. After the enzyme reaction, 10 µL of ADP-GLO reaction reagent was added to each well and incubated at room temperature for 30 min. After that, 20 µL of detection reagent was added to each well and incubated at room temperature for 30 min in the dark. Finally, chemiluminescence detection was performed using the PerkinElmer Envision.
In general terms: ADP-Glo turns the ADP formed in a reaction into a luminescent signal.

pIC50: −log10 of the molar value. Read-outs that look alike come from different tables or passages of the source. Where only a bound is given, the exact number is not on record here.

For the compound `Cc1cc2nc(n1)N1CCCC(CCCC3CCN(CC3)c3cc(NS(=O)(=O)CCO)ccc3C(=O)N2)C1` (stereo not drawn) [Example 3B, 2-Hydroxy-N-((1^3S)-2^6-methyl-4-oxo-3-aza-2(2,4)-pyrimidin-1(1,3),6(1,4)-dipiperidin-5(1,2)-benzeneheterocyclononane-5^4-yl)ethane-1-sulfonamide], the pIC50 in assay [1] is 7.44; in assay [2], 7.37; in assay [3], 7.17.

Take `Cc1cc2nc(n1)N1CCCC(CCC3CCN(CC3)c3cc(NS(=O)(=O)CCO)ccc3C(=O)N2)C1` (stereo not drawn) [Example 5, 2-Hydroxy-N-(1^1-methyl-7-oxo-8-aza-1(2,4)-pyrimidin-2(1,3),5(4,1)-dipiperidin-6 (1,2)-benzeneheterocyclooct-6^5-yl)ethane-1-sulfonamide]: the pIC50 was 6.91 in assay [1] (Homo sapiens, OVCAR-3, 72 h); 6.88 in assay [2] (Homo sapiens, HT-29, 72 h); 7.42 in assay [3].

Take `Cc1cc2nc(n1)N1CCOC(C=CCC3CCN(CC3)c3cc(NS(=O)(=O)CCO)ccc3C(=O)N2)C1` (stereo not drawn) [Example 25, 2-Hydroxy-N-((1^2S)-2^6-methyl-4-oxo-3-aza-1(4,2)-morpholin-2(2,4)-pyrimidin-6(1,4)-piperidin-5(1,2)-benzeneheterocyclonon-8-en-5^4-yl)ethane-1-sulfonamide]: the pIC50 in assay [1] (Homo sapiens, OVCAR-3, 72 h) is 8.07; in assay [2] (Homo sapiens, HT-29, 72 h), 7.96; in assay [3], 7.89.

With `Cc1cc2nc(n1)N1CCCC(C=CCC3CCN(CC3)c3cc(NS(=O)(=O)CCO)ccc3C(=O)N2)C1` (stereo not drawn) [Example 1D, 2-Hydroxy-N-((1^3R,Z)-2^6-methyl-4-oxo-3-aza-2(2,4)-pyrimidin-1(1,3),6(1,4)-dipiperidin-5(1,2)-benzoaza-8-en-5^4-yl)ethane-1-sulfonamide], the pIC50 in assay [1] is 6.30; in assay [2], 6.13; in assay [3], 6.61.

`Cc1cc2nc(n1)N1CCCC(C1)C(=O)NCC1CCN(CC1)c1cc(NS(=O)(=O)CCO)ccc1C(=O)N2` (stereo not drawn) [Example 27, N-(2^6-methyl-4,9-dioxo-3,8-diaza-2(2,4)-pyrimidin-1(1,3),6(1,4)-dipiperidin-5(1,2) -benzeneheterocyclononane-5^4-yl)-2-hydroxyethane-1-sulfonamide]: the pIC50 in assay [1] (Homo sapiens, OVCAR-3, 72 h) is 5.83; in assay [2] (Homo sapiens, HT-29, 72 h), below 5.52; in assay [3] it was 6.58.

For the compound `O=C1Nc2cccc(c2)S(=O)(=O)NCCCC2CCN(CC2)c2cc(NS(=O)(=O)CCO)ccc21` [Example 16, N-(6,6-dioxo-3-oxo-6-thia-4,7-diaza-1(1,4)-piperidin-2(1,2),5(1,3)-diphenylheterocyclodecane-2^5-yl)-2-hydroxy-1-ethanesulfonamide], the pIC50 in assay [1] (Homo sapiens, OVCAR-3, 72 h) was below 5.52; in assay [2] (Homo sapiens, HT-29, 72 h), below 5.52; in assay [3], 6.23.

On to `Cc1cc2nc(n1)N1CCC(F)(F)C(CCCC3CCN(CC3)c3cc(NS(=O)(=O)CCO)ccc3C(=O)N2)C1` (stereo not drawn) [Example 23, N-(1^4,1^4-difluoro-2^6-methyl-4-oxo-3-aza-2(2,4)-pyrimidin-1(1,3),6(1,4)-dipiperidin-5(1,2)-benzeneheterocyclononane-5^4-yl)-2-hydroxyethane-1-sulfonamide], for which the pIC50 was 7.28 in assay [1], 7.33 in assay [2] and 6.99 in assay [3].

Take `Cc1cc2nc(n1)N1CCCC(C=CCC3CCN(CC3)c3cc(NS(=O)(=O)CCO)ccc3C(=O)N2)C1` (stereo not drawn) [Example 1A, 2-Hydroxy-N-((1^3S,E)-2^6-methyl-4-oxo-3-aza-2(2,4)-pyrimidin-1(1,3),6(1,4)-dipiperidin-5(1,2)-benzoaza-8-en-5^4-yl)ethane-1-sulfonamide]: the pIC50 in assay [1], in assay [2] and in assay [3] was below 5.52 throughout.

For the compound `Cc1cc2nc(n1)N1CCCC(COCC3CCN(CC3)c3cc(NS(=O)(=O)CCO)ccc3C(=O)N2)C1` (stereo not drawn) [Example 28, 2-Hydroxy-N-(2^6-methyl-4-oxo-8-oxa-3-aza-2(2,4)-pyrimidin-1(1,3),6(1,4)-dipiperidin-5(1,2)-benzeneheterocyclononane-5^4-yl)ethane-1-sulfonamide], the pIC50 in assay [1] (Homo sapiens, OVCAR-3, 72 h) was 6.30; in assay [2] (Homo sapiens, HT-29, 72 h), 6.19; in assay [3], 6.64.

Source of the values: patent publication EP4755892A1, “KINESIN KIF18A INHIBITOR AND USE THEREOF” (Shanghai Apeiron Therapeutics Company Limited, priority 2023, dated 2025).
